This is an account of results in US20080312304A1, “Topical compositions containing metronidazole” (priority 2007, published 2008).

The nature of data set [1]: physical stability test of aqueous metronidazole compositions (crystal formation or precipitation). In kind it is physicochemical. Particulars: for Results from stability test: 1.0% metronidazole, 24 hours room temperature, then 7 days at about 4 °C; for concentration of the solubility enhancing agent required to obtain a stable aqueous solution of 1.0% metronidazole: agent used as the only solubility enhancing agent, stability test of Example 1; for N-2-hydroxyethyl urea concentration functionally equivalent to 1% of the agent in inducing the solubility enhancing effect: worked out from Examples 2, 3 and 4. The protocol:
The solubility enhancing effect of the combination of niacinamide, urea, and hydroxyalkyl urea in increasing the solubility of metronidazole in the aqueous compositions is evaluated by physical stability of the prepared compositions.
Therefore, the compositions in accordance with the present invention are subject to a physical stability test. The protocol for the stability test is as follows: metronidazole and the solubility enhancing agents are combined with water either at room temperature or elevated temperature while stirring until dissolved. The solutions are permitted to cool to room temperature. Customary auxiliaries and additives may be added to the aqueous solutions containing solubilized metronidazole and solubility enhancing agents. The solutions may be gelled by using the suitable gelling agents. The compositions both in gel or solution form are then packaged in clear glass vials and sealed. The vials are kept at room temperature for 24 hours and monitored for crystal formation or precipitation. After 24 hours, the vials are placed in a refrigerator maintained at a temperature of about 4 ° C. for 7 days. After 7 days, the vials are removed from the refrigerator. Evidence of crystal formation or precipitation in the compositions is examined.

For data set [2] the following is noted: at 25 °C; cited from earlier work.

With `Cc1ncc([N+](=O)[O-])n1CCO` [Metronidazole, 1-(2-hydroxyethyl)-2-methyl-5-nitroimidazole], the “Results from stability test” value in data set [1] (2% niacinamide in water) is “Crystals formed”; in data set [1] (2.0% urea, 2.0% N-2-hydroxyethyl urea, 2.0% niacinamide in water), “Clear (‘clear’ means no crystals or precipitates)”; in data set [1] (3% niacinamide in water) it was “Crystals formed”; in data set [1] (3.0% urea, 3.0% N-2-hydroxyethyl urea, 1.5% niacinamide in water), “Clear (‘clear’ means no crystals or precipitates)”; in data set [1] (4% niacinamide in water), “Crystals formed”; in data set [1] (5% niacinamide in water), “Clear (‘clear’ means no crystals or precipitates)”. The “Results from stability test” value is reported as “Crystals formed” in data set [1] (7% urea in water); “Crystals formed” in data set [1] (8% urea in water); “Crystals formed” in data set [1] (9% urea in water); “Clear (‘clear’ means no crystals or precipitates)” in data set [1] (10% urea in water); “Crystals formed” in data set [1] (13% N-2-hydroxyethyl urea in water); “Crystals formed” in data set [1] (14% N-2-hydroxyethyl urea in water). Also, the “Results from stability test” value is “Crystals formed” in data set [1] (15% N-2-hydroxyethyl urea in water) and “Clear (‘clear’ means no crystals or precipitates)” in data set [1] (16% N-2-hydroxyethyl urea in water). For the same compound, the “result from the stability test, in words” value in data set [1] (composition containing 2.0% N-2-hydroxyethyl urea, 2.0% niacinamide, 2.0% urea and 1.0% metronidazole) is recorded as “stable”.

Regarding `NC(=O)NCCO` [N-2-hydroxyethyl urea], the “concentration of the solubility enhancing agent required to obtain a stable aqueous solution of 1.0% metronidazole” value (“concentration … of 1.0% metronidazole” for short) in data set [1] is given as “about 16%”.

As for `NC(=O)c1cccnc1` [niacinamide], in data set [2], the water solubility limit result is given as “about 50 % by weight”. In data set [1], the “concentration … of 1.0% metronidazole” value is recorded as “about 5%” and the “N-2-hydroxyethyl urea concentration functionally equivalent to 1% of the agent in inducing the solubility enhancing effect” value is “about 3.2%”.

Consider `NC(N)=O` [urea], for which, in data set [1], the “concentration … of 1.0% metronidazole” value was “about 10%” and the “N-2-hydroxyethyl urea concentration functionally equivalent to 1% of the agent in inducing the solubility enhancing effect” value was “about 1.6%”.
